Laboratory results reported in PMC12455572, “Amphipathic Proline-Rich Cell Penetrating Peptides for Targeting Mitochondria” (ACS Chemical Biology, 2025).
Entries after “also recorded” stand apart in the source; their conditions may differ. Where a SMILES comes first, the peptide text is derived from it. [ ]: non-standard residue; d: D form. The star is where a group is joined. 5FAM = O=C1OC2(c3ccc(O)cc3Oc3cc(O)ccc32)c2ccc(C(=O)*)cc21; Pro(cis-4-guanidino) = NC(N)=N[C@@H]1CN[C@H](C(=O)O)C1; Cha = N[C@@H](CC1CCCCC1)C(=O)O; Ahx = NCCCCCC(=O)O

Columns and labels:
MCF-7 cells [1] = assay: Flow cytometry (FACS): overall cellular uptake; assay type: cell-based; settings: for Total cellular fluorescence after the 24 h rest compared with directly after 1 h incubation (FACS): MCF-7, 1 h incubation at 37 °C, then 24 h rest in DMEM + 10% FBS; for Fold higher cellular uptake with additional C-terminal hydrophobic residue (FACS): 1 h, 37 °C, versus the peptide without the C-terminal Cha/ChPro
Experimental: MCF-7 cells were seeded in a 24-well plate at 150′000 cells/well in DMEM (1 mL, 10% FCS), and allowed to adhere overnight. The medium was removed, the cells were washed with PBS (250 μL, 1x) and incubated with the peptide solution at 20 μM, 10 μM, 5 μM or 2.5 μM in medium (200 μL, 1% FCS) for 1 h at 37 °C. The medium was removed, and the cells were washed with PBS (250 μL, 2x). Trypsin (100 μL, 0.05%) was added, and the cells were incubated at 37 °C for 5 min. D-PBS with Mg^2+ and Ca^2+ (300 μL, 4 °C) was added, the cells were resuspended and centrifuged for 5 min at 0.4 rcf. The supernatant was carefully removed, and the cells were resuspended in a solution of PBS containing 1.5 μM PI and 2 mM EDTA (400 μL at 4 °C). The cells were added to FACS tubes and kept on ice prior to analysis. Each sample contained 10′000 cells and was analyzed in triplicate. Each experiment was repeated three times.
For the experiments that included the 24 h rest period, the peptides were incubated as described above. After the 1 h incubation time, the cells were washed with PBS (250 μL, 2x), DMEM (250 μL, 10% FBS) was added, and the cells were kept at 37 °C, 5% CO2 for 24 h. For a direct comparison of the effect of a 24 h rest period, another set of peptides was incubated with the cells for 1 h. Then, cells of both sets of experiments (1 h followed by the 24 h rest period versus 1 h incubation) were washed with PBS, treated with trypsin, and prepared for FACS analysis as described above. Each sample was run in triplicate and was repeated three times. […]
MCF-7 cells were obtained from the American Type Culture Collection (ATCC).
The cells were grown in a humidified 5% CO2 atmosphere at 37 °C Dulbecco’s Modified Eagle’s Medium (DMEM), high glucose, GlutaMAXTM (4 mM) supplemented with L-glutamine (4 mM), gentamicin (10 mg/L), […]
Fluorescence-Activated Cell Sorting (FACS) analyzer
On a BD LSRFortessa flow cytometer, CF was excited at 488 nm and monitored with 530/30 bandpass, PI was excited at 561 nm and monitored with a 610/20 bandpass. Mean fluorescence values were determined from the histograms using FlowJo 10.0.6 software while dead cells were removed according to PI staining.
Below is an example, CF-Ahx-(ChaZZ)3, of gating, set on untreated cells and propagated to all samples.
Each sample was run in triplicate, and each experiment was repeated at least three times.
(1 picture or pasted object on this page, not shown here)

MCF-7 cells [2] = assay: Colocalization of peptide with MitoTracker (Manders' coefficients from confocal images); assay type: cell-based; settings: MCF-7, after 24 h rest versus after 1 h incubation, Figure S7B; 10 µM for (ChaZZ)3, otherwise concentration not stated
Experimental: MCF-7 cells were seeded in a 8-μwell Ibidi plate at 25′000 cells/well in DMEM (100 μL, 10% FCS) and allowed to adhere overnight. The medium was removed, the cells were washed with PBS (200 μL, 1x) and incubated with the peptide solution at 20 μM, 10 μM, 5 μM or 2.5 μM in DMEM (200 μL, 1% FCS) for 1 h at 37 °C. The medium was removed, and the cells were washed with PBS (200 μL, 2x). MitoTracker Deep Red was distributed at 20 nM in DMEM (200 μL, 1% FBS) and the cells were incubated at 37 °C for 25 min. The medium was removed, and the cells were washed with PBS (200 μL, 2x). Hoechst333342 was distributed at 2 μM in DMEM (200 μL, 1% FBS) and the cells were incubated at 37 °C for 5 min. The cells were washed with PBS (200 μL, 2x), and FluoroBrite medium (200 μL) was added. The live cells were monitored on the confocal microscope at 37 °C, 5% CO2.
For the cells subjected to a 24 h rest period, the FluoroBrite medium was exchanged for DMEM (200 μL, 10% FBS) after the initial imaging, and the cells were kept in this medium for 24 h. The culture medium was then exchanged for FluoroBrite DMEM, and the cells were imaged again.
Fluorescence images of cells were collected using a Nikon Eclipse T1 (inverse) microscope equipped with a Yokogawa Confocal Scanner Unit CSU-W1-T2, containing a spinning disk (50 µm). The microscope is equipped with two EMCCD Andor iXon Ultra cameras. Emission in the blue channel (405 nm) was filtered with a 450/50 bandpass filter, emission in the green channel (488 nm) was filtered with a 525/50 bandpass, and the emission in the red channel (641 nm) was filtered with a 708/75 bandpass filter. Fluorescence images were obtained using an oil-immersion objective with a magnification of 100 × 1.4 CFI Plan Apo Oil.
Each experiment was repeated at least three times. The images acquired were adjusted using ImageJ2 software. Correlation coefficients were determined on entire images using JaCOP plugin.1 […]
MCF-7 cells were seeded in a 8-µwell Ibidi plate at 25’000 cells/well in DMEM (100 µL, 10% FCS) and allowed to adhere overnight. The medium was removed. The cells were washed with PBS (200 µL, 1x) and incubated with the peptide solution at 20 µM, 10 µM, 5 µM, or 2.5 µM in DMEM (200 µL, 1% FCS) for 1 h at 37 °C. The medium was removed, and the cells were washed with PBS (200 µL, 2x).
For imaging of mitochondria, MitoTracker Deep Red was added as described in the manuscript. […]
PBS (200 µL, 2x). For imaging of the nucleus, Hoechst333342 was added at (200 µL, 2 µM in DMEM, 1% FBS) followed by incubation of the cells at 37 °C for 5 min. The cells were washed with PBS (200 µL, 2x), and FluoroBrite medium (200 µL) was added. The live cells were monitored on the confocal microscope […]
MCF-7 cells were seeded in a 96-well plate at 7’500 cells/well in cell culture medium (200 µL, 10% FCS), and allowed to adhere overnight. The medium was removed, the cells were washed with PBS (100 µL, 1x) and incubated with the peptide solution at 20 µM, 10 µM, 5 µM, or 2.5 µM in DMEM (200 µL, 1% FCS) for 1 h at 37 °C. The medium was removed, and the cells were washed with PBS (100 µL, 1x). The MTT solution in DMEM (110 µL, 1.2 mM, 1% FBS) was added. The cells were incubated for 3 h at 37 °C. The supernatant was carefully removed, and DMSO (100 µL) was added. The plate was gently shaken for 30 min and the absorption of formazan solution at 570 nm was measured on the plate reader. […]

Compound	Total cellular fluorescence after the 24 h rest compared with directly after 1 h incubation (FACS) (MCF-7 cells [1])	Fold change of peptide overlap with MitoTracker (M1) after 24 h rest (MCF-7 cells [2])	Fold higher cellular uptake with additional C-terminal hydrophobic residue (FACS) (MCF-7 cells [1]; MCF-7, 5 μM) [fold]	Fold higher cellular uptake with additional C-terminal hydrophobic residue (FACS) (MCF-7 cells [1]; MCF-7, 10 μM) [fold]	Fold higher cellular uptake with additional C-terminal hydrophobic residue (FACS) (MCF-7 cells [1]; MCF-7, 20 μM) [fold]	Fold change of MitoTracker overlap with the peptide (M2) after 24 h rest (MCF-7 cells [2])
CF-Ahx-(ChaZZ)3-NH2	lower; also recorded: less fluorescence was observed after 24 h	> 2 fold	–	–	–	–
CF-Ahx-(ChaZZ)2-Cha-NH2	lower; also recorded: Significantly less fluorescence was observed after 24 h	1.3 fold	2	4	6	0.4 fold
N=C(N)N[C@H]1C[C@@H](C(=O)N2C[C@@H](NC(=N)N)C[C@H]2C(=O)N[C@@H](CC2CCCCC2)C(=O)N2C[C@@H](NC(=N)N)C[C@H]2C(=O)N2C[C@@H](NC(=N)N)C[C@H]2C(=O)N[C@@H](CC2CCCCC2)C(=O)N2C[C@@H](NC(=N)N)C[C@H]2C(=O)N2C[C@@H](NC(=N)N)C[C@H]2C(=O)N[C@@H](CC2CCCCC2)C(N)=O)N(C(=O)[C@H](CC2CCCCC2)NC(=O)CCCCCNC(=O)c2ccc3c(c2)C(=O)OC32c3ccc(O)cc3Oc3cc(O)ccc32)C1 [(ChaZZ)3-Cha, CF-Ahx-(ChaZZ)3-Cha-NH2] ({5FAM-Ahx}-[Cha][Pro(cis-4-guanidino)][Pro(cis-4-guanidino)][Cha][Pro(cis-4-guanidino)][Pro(cis-4-guanidino)][Cha][Pro(cis-4-guanidino)][Pro(cis-4-guanidino)][Cha]-NH2)	constant or increased	more than 1.5 fold	3	3	1.5	up to 3.6 fold
